For orientation: IC50 means the concentration needed to halve the response being measured.

“Also recorded” adds a separate entry of the source. Bounds are passed on as bounds.

The target of one test is BRAF(V600E) (Homo sapiens, UniProt P15056, V600E). Nature of the test: biochemical.
A further test deals with T1, MLK3 (MAP3K11) (Homo sapiens, UniProt Q16584).
T1 construct: purchased KINOMEscan (DiscoveRx), San Diego, CA
Nature of the test: Quantitative competitive binding assay (KINOMEscan).

Another test relates to NHEK cells. Nature of the test: UV-induced apoptosis, FACS Annexin V+, TMRE-low. The class given is cell-based, human. As to conditions: 1 kJ/m^2 UVB, 1 μM, 24 hr, vs DMSO.
In test [1] the test system is phospho-JNK and phospho-p38. Conditions: A375 and WM35, 24 hr.
Test [2] deals with epidermal keratinocytes of C57BL/6 mice. Nature of the test: Acute UVR-induced epidermal apoptosis in mouse skin. Conditions: in vivo. An excerpt:
Cutaneous squamous cell carcinomas biopsied from patients treated with or without BRAF-inhibitor were obtained either under clinical trials (Roche) or separate IRB approval (LAB08-0750). Staining levels were quantified by counting positively labeled cells and dividing by the total area of the tumor tissue within each sample. To measure tumor areas, all samples were photographed, tumor cells outlined, and total pixel numbers calculated using included image analysis tools in Adobe Photoshop and standardized to a hemacytometer to convert to mm^2. To measure apoptosis in irradiated skin, pyknotic or dyskeratotic epidermal keratinocytes were counted and normalized to length (mm) of epidermis.

The test system of a further test is phospho-JNK. Nature of the test: Western blot, UV-induced phospho-JNK in cSCC and HaCaT cell lines. The class given is cell-based, human. As to conditions: 1 μM, post-radiation. For orientation: A western blot detects proteins with antibodies after separation by electrophoresis.
Test [3] has as its system ZAK (T82Q)-expressing HaCaT cells. Nature of the test: UV-induced apoptosis in HaCaT cells overexpressing ZAK (WT) or gatekeeper mutant ZAK (T82Q). As to conditions: 1 μM, UVB 720 J/m^2, 24 hr.
The target in a further test is T2, TAOK1 (Homo sapiens, UniProt Q7L7X3).
T2 construct: purchased KINOMEscan (DiscoveRx), San Diego, CA
T2 sequence (Q7L7X3 1-1001): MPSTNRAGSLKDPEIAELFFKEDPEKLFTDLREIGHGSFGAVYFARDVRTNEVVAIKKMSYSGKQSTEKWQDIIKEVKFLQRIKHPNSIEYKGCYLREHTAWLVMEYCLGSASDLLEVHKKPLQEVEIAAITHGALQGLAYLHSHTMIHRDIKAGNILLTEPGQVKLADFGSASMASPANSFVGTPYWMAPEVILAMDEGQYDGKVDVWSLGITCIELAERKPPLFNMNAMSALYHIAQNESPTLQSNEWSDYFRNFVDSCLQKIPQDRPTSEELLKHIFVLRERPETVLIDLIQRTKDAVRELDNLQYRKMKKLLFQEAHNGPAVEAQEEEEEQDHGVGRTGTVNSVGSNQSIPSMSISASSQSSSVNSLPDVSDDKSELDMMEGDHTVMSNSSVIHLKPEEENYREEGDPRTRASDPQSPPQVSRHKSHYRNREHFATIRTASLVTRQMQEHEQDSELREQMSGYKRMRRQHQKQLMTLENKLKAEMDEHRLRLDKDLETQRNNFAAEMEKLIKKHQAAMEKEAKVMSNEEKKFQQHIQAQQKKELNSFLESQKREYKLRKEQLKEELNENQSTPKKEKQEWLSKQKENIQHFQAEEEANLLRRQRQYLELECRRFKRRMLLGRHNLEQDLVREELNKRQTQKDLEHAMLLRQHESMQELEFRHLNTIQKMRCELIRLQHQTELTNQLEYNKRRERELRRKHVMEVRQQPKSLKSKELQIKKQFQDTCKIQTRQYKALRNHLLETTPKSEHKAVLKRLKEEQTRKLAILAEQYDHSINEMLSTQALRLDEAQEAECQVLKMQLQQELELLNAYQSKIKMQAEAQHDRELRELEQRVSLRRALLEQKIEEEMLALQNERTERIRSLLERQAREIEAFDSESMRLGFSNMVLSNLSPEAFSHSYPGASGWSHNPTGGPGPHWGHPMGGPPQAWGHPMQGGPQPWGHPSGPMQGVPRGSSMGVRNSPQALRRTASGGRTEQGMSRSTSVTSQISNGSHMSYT
Further details: method as in Tsai et al., 2008. As to conditions: ref Tsai et al., 2008; read-out: Published biochemical IC50; cited from earlier work.

The test system of a further test is SRB1 cells. Nature of the test: UV-induced apoptosis, FACS Annexin V+, TMRE-low. The class given is cell-based, human. Conditions: 1 kJ/m^2 UVB, 1 μM, 24 hr, vs DMSO.
In another test the test system is COLO16 cells. Nature of the test: UV-induced apoptosis, FACS Annexin V+, TMRE-low. As to conditions: 1 kJ/m^2 UVB, 1 μM, 24 hr, vs DMSO. The class given is cell-based, human.
The target in a further test is BRK (PTK6) (Homo sapiens, UniProt Q13882). Conditions: ref Bollag et al., 2010; read-out: Published biochemical IC50; cited from earlier work.
Sequence of BRK (PTK6) (Q13882 whole entry): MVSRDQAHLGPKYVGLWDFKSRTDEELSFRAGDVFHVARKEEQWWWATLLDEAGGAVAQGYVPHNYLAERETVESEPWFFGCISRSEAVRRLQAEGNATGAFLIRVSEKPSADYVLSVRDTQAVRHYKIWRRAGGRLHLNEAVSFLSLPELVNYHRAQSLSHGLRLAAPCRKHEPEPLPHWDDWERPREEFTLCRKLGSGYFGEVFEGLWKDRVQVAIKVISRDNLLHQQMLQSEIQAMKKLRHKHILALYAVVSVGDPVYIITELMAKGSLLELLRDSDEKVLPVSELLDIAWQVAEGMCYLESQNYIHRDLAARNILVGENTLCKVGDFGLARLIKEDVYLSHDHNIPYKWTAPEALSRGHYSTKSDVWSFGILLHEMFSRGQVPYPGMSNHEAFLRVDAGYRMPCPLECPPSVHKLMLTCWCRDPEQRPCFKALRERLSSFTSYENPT
The target of the next test is T3, MAP4K5 (Homo sapiens, UniProt Q9Y4K4).
T3 construct: purchased KINOMEscan (DiscoveRx), San Diego, CA
T3 sequence (Q9Y4K4 whole entry): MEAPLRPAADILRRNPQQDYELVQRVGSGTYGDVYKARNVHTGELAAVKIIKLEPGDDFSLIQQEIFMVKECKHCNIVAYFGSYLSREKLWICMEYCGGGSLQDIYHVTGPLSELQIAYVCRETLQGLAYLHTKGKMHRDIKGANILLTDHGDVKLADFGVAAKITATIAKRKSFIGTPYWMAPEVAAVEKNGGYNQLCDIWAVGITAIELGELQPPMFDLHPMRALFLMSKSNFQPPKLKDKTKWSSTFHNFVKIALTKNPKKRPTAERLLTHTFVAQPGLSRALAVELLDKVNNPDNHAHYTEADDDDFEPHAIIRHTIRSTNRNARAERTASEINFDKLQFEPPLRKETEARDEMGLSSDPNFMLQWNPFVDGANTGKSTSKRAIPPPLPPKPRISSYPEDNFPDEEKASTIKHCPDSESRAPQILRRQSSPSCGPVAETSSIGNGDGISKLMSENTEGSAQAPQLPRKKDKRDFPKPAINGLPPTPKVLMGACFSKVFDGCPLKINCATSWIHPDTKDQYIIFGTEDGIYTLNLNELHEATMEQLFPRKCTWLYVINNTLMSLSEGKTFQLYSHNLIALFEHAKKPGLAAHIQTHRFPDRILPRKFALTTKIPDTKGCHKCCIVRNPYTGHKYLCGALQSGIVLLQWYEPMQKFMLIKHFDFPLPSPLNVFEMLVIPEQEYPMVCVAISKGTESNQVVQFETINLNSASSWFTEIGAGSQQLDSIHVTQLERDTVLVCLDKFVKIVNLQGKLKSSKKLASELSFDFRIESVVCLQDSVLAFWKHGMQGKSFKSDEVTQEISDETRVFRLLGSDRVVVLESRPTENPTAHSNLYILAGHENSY
More on the design: method as in Bollag et al., 2010. As to conditions: ref Bollag et al., 2010; read-out: Published biochemical IC50; cited from earlier work.

In a further test the target is T4, ASK1 (Homo sapiens, UniProt Q99683).
T4 construct: purchased Reaction Biology
Nature of the test: In vitro kinase assay (Reaction Biology). Conditions: run in parallel. The class given is biochemical. From the text: . Average percent inhibition was reported. […]

In the next test the target is T5, FGR (Homo sapiens, UniProt P09769).
T5 construct: purchased KINOMEscan (DiscoveRx), San Diego, CA
T5 sequence (P09769 whole entry): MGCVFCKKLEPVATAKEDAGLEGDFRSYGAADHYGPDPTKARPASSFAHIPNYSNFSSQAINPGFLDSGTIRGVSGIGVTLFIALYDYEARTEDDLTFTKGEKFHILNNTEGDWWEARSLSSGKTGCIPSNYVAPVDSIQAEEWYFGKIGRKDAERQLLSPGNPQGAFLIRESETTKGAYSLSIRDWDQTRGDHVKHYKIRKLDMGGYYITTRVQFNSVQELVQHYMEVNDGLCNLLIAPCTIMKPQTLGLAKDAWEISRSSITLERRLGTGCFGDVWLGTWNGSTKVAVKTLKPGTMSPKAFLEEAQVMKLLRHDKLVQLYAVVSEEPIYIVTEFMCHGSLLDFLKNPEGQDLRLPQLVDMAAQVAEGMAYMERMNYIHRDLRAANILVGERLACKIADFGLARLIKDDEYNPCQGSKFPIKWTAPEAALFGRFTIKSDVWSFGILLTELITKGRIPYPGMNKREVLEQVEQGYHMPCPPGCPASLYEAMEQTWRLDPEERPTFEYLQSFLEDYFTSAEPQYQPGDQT
Further details: method as in Bollag et al., 2010. Conditions: ref Bollag et al., 2010; read-out: Published biochemical IC50; cited from earlier work.

Another test concerns the target T6, full length MAP4K5 (Homo sapiens, UniProt Q9Y4K4).
T6 construct: and full length MAP4K5 (MBP substrate, ATP 10 μM) (Reaction Biology); purchased Reaction Biology
Nature of the test: In vitro kinase assay (Reaction Biology). The class given is biochemical.

The next test addresses T7, BLK (Homo sapiens, UniProt P51451).
T7 construct: purchased KINOMEscan (DiscoveRx), San Diego, CA
Further details: method as in Bollag et al., 2010. Conditions: ref Bollag et al., 2010; read-out: Published biochemical IC50; cited from earlier work.

Where [4] appears, read: read-out: Percent control (50 nM).
Setting [5] is: read-out: Percent control (200 nM).
The mark [6] stands for this setting: read-out: Percent control (1000 nM).
[7] abbreviates: read-out: Percent control (10 μM).

T1 sequence (Q16584 whole entry): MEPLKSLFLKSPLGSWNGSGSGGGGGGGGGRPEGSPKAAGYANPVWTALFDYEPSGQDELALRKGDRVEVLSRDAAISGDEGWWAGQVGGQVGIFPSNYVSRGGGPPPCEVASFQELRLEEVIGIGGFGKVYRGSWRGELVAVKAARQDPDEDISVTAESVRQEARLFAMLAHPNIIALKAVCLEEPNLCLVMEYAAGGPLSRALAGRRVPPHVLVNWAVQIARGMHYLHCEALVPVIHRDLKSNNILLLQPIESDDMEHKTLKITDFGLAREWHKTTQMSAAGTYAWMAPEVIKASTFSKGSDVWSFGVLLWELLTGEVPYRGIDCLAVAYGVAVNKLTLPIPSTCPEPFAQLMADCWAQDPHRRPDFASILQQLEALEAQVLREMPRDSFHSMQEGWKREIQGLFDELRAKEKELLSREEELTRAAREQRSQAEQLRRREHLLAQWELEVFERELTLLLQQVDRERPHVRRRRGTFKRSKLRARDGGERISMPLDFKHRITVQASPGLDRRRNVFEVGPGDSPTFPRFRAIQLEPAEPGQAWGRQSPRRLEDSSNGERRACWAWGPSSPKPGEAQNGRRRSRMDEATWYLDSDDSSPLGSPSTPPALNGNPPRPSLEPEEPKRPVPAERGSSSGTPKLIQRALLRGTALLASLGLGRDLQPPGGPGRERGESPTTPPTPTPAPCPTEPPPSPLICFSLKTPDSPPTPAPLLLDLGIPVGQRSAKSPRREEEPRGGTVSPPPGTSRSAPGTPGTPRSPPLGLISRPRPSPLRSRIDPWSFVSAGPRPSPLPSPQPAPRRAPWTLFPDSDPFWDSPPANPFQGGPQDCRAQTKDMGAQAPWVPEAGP
Sequence of BRAF(V600E) (P15056 whole entry V600E): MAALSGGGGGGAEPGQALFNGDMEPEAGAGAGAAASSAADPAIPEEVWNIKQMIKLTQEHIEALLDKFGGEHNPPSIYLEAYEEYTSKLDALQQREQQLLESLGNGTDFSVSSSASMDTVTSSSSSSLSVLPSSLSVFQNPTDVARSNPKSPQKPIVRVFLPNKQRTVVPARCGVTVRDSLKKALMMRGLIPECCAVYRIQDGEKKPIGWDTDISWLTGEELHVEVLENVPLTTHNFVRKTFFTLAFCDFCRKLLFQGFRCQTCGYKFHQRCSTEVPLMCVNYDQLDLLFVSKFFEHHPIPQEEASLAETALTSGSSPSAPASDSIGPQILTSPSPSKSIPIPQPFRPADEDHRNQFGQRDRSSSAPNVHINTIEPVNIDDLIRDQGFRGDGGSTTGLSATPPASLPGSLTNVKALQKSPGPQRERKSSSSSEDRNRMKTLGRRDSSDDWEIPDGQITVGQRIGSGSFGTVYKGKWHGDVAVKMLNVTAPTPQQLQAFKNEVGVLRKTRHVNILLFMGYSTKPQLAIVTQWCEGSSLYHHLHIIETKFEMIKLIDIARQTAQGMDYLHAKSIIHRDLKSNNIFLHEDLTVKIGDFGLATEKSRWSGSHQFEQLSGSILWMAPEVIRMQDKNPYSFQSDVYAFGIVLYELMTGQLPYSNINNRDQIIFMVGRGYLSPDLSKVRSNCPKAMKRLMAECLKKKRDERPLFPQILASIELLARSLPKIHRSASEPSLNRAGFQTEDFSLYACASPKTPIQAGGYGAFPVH
T6 sequence (Q9Y4K4 whole entry): as the sequence (Q9Y4K4 whole entry) above
T7 sequence (P51451 whole entry): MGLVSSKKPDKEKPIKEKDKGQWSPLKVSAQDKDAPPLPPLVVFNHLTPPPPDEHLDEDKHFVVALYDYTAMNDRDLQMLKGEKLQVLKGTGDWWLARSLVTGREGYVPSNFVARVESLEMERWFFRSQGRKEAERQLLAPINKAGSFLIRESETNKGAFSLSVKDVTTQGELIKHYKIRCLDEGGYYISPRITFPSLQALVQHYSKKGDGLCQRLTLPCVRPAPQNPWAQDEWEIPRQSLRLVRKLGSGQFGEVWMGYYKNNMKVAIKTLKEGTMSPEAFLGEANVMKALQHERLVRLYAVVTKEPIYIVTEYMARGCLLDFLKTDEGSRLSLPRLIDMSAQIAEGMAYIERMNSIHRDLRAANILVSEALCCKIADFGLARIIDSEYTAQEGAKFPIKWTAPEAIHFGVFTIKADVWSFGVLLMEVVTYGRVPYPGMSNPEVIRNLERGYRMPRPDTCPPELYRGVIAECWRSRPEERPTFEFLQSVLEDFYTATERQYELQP

`CCCS(=O)(=O)Nc1ccc(F)c(C(=O)c2c[nH]c3ncc(Cl)cc23)c1F` [PLX4720]: at BRAF(V600E) (setting [4]), the remaining activity at 0.05 µM amounted to 38%. Moreover, the remaining activity at 0.2 µM on BRAF(V600E) (setting [5]) is 19%. Further, at BRAF(V600E) (setting [6]), the remaining activity at 1 µM was determined as 3.9%. Further, the remaining activity at 10 µM at BRAF(V600E) (setting [7]) amounted to 0.1%. Further, on MLK3 (MAP3K11) (setting [4]), the remaining binding at 0.05 µM came to 100%. In addition, the remaining binding at 0.2 µM on MLK3 (MAP3K11) (setting [5]) was determined as 100%. The remaining binding at 1 µM on MLK3 (MAP3K11) (setting [6]) is 100%. Also, the remaining binding at 10 µM at MLK3 (MAP3K11) (setting [7]) was determined as 100%. In addition, the “suppression of UV-induced apoptosis” value in the test on NHEK cells, in the test on SRB1 cells and in the test with COLO16 cells was “at least 70%” each time. For the same compound, the “UV-mediated induction of phospho-p38 and phospho-JNK” value in test [1] is given as “significant suppression”. The “apoptotic epidermal keratinocytes in irradiated skin” value in test [2] worked out at 4.9 ± 0.3 apoptotic cells/mm skin. Also, the “UV-induced phospho-JNK levels” value in the test on phospho-JNK is “significantly suppressed; also recorded: potently suppresses”. Moreover, in test [3], the “apoptosis of drug-treated ZAK (T82Q)-expressing cells as share of the levels in untreated cells” value stood at 76.9%. The IC50 on TAOK1 was more than 5000 nM.
On to `CCCS(=O)(=O)Nc1ccc(F)c(C(=O)c2c[nH]c3ncc(-c4ccc(Cl)cc4)cc23)c1F` [vemurafenib], for which the 50% inhibitory concentration (IC50) at BRK (PTK6) is 213 nM; at MAP4K5 it was 51 nM; at FGR, 63 nM; at full length MAP4K5 (MBP substrate, ATP 10 μM, read-out: biochemical IC50) it was 354 ± 26 nM; on BLK it was 547 nM. Besides, on ASK1, the “inhibition of ASK1” value is recorded as “no significant inhibition”. Besides, the remaining activity at 1 µM at full length MAP4K5 (at 1 μM, read-out: residual activity) stood at 25.7 ± 0.6%.

The values are drawn from PMC3814616, “BRAF inhibitors suppress apoptosis through off-target inhibition of JNK signaling” (eLife, 2013).
